How the values were obtained:
[1] = test system: ryegrass, Italian (Italian ryegrass, Lolium multiflorum); test: Test A preemergence, ryegrass, Italian; assay type: in vivo; conditions: Lolium multiflorum, pre-emergence, 240 h, 0 to 100 scale (0 no effect, 100 complete control), read-out: Plant response rating, Ryegrass, Italian; for pest or weed control at 31 g/ha: 31 g ai/ha; for pest or weed control at 125 g/ha: 125 g ai/ha
[2] = test system: pigweed (Amaranthus retroflexus); test: Test A preemergence, pigweed; assay type: in vivo; conditions: Amaranthus retroflexus, pre-emergence, 240 h, 0 to 100 scale (0 no effect, 100 complete control), read-out: Plant response rating, Pigweed; for pest or weed control at 31 g/ha: 31 g ai/ha; for pest or weed control at 125 g/ha: 125 g ai/ha
[3] = test system: blackgrass (Alopecurus myosuroides); test: Test A postemergence, blackgrass; assay type: in vivo; conditions: Alopecurus myosuroides, post-emergence, 240 h, 0 to 100 scale (0 no effect, 100 complete control), read-out: Plant response rating, Blackgrass; for pest or weed control at 31 g/ha: 31 g ai/ha; for pest or weed control at 125 g/ha: 125 g ai/ha
[4] = test system: barnyardgrass (Echinochloa crus-galli); test: Test A postemergence, barnyardgrass; assay type: in vivo; conditions: Echinochloa crus-galli, post-emergence, 240 h, 0 to 100 scale (0 no effect, 100 complete control), read-out: Plant response rating, Barnyardgrass; for pest or weed control at 31 g/ha: 31 g ai/ha; for pest or weed control at 125 g/ha: 125 g ai/ha
[5] = test system: kochia (Kochia scoparia); test: Test A preemergence, kochia; assay type: in vivo; conditions: Bassia scoparia, pre-emergence, 240 h, 0 to 100 scale (0 no effect, 100 complete control), read-out: Plant response rating, Kochia; for pest or weed control at 31 g/ha: 31 g ai/ha; for pest or weed control at 125 g/ha: 125 g ai/ha
[6] = test system: galium (catchweed bedstraw, Galium aparine); test: Test A postemergence, galium; assay type: in vivo; conditions: Galium, post-emergence, 240 h, 0 to 100 scale (0 no effect, 100 complete control), read-out: Plant response rating, Galium; for pest or weed control at 31 g/ha: 31 g ai/ha; for pest or weed control at 125 g/ha: 125 g ai/ha
[7] = test system: corn (Zea mays); test: Test A postemergence, corn; assay type: in vivo; conditions: Zea mays, post-emergence, 240 h, 0 to 100 scale (0 no effect, 100 complete control); for Corn plant response rating (crop injury, 0 = no effect, 100 = complete kill) at 31 g/ha: 31 g ai/ha; for Corn plant response rating (crop injury, 0 = no effect, 100 = complete kill) at 125 g/ha: 125 g ai/ha
[8] = test system: ragweed (common ragweed, Ambrosia elatior); test: Test A postemergence, ragweed; assay type: in vivo; conditions: Ambrosia artemisiifolia, post-emergence, 240 h, 0 to 100 scale (0 no effect, 100 complete control), read-out: Plant response rating, Ragweed; for pest or weed control at 31 g/ha: 31 g ai/ha; for pest or weed control at 125 g/ha: 125 g ai/ha
[9] = test system: pigweed (Amaranthus retroflexus); test: Test A postemergence, pigweed; assay type: in vivo; conditions: Amaranthus retroflexus, post-emergence, 240 h, 0 to 100 scale (0 no effect, 100 complete control), read-out: Plant response rating, Pigweed; for pest or weed control at 31 g/ha: 31 g ai/ha; for pest or weed control at 125 g/ha: 125 g ai/ha
[10] = test system: rice (Oryza sativa); test: Test B flooded paddy test, rice; conditions: Oryza sativa, read-out: Plant response rating, Rice (0 to 100 scale, 0 is no effect, 100 is complete control)
[11] = test system: wheat (Triticum aestivum); test: Test A postemergence, wheat; assay type: in vivo; conditions: Triticum aestivum, post-emergence, 240 h, 0 to 100 scale (0 no effect, 100 complete control), read-out: Plant response rating, Wheat; for plant injury at 31 g/ha: 31 g ai/ha; for plant injury at 125 g/ha: 125 g ai/ha
[12] = test system: barnyardgrass (Echinochloa crus-galli); test: Test A preemergence, barnyardgrass; assay type: in vivo; conditions: Echinochloa crus-galli, pre-emergence, 240 h, 0 to 100 scale (0 no effect, 100 complete control), read-out: Plant response rating, Barnyardgrass; for pest or weed control at 31 g/ha: 31 g ai/ha; for pest or weed control at 125 g/ha: 125 g ai/ha
[13] = test system: foxtail, giant (giant foxtail, Setaria faberii); test: Test A preemergence, foxtail, giant; assay type: in vivo; conditions: Setaria faberi, pre-emergence, 240 h, 0 to 100 scale (0 no effect, 100 complete control), read-out: Plant response rating, Foxtail, Giant; for pest or weed control at 31 g/ha: 31 g ai/ha; for pest or weed control at 125 g/ha: 125 g ai/ha
[14] = test system: ragweed (common ragweed, Ambrosia elatior); test: Test A preemergence, ragweed; assay type: in vivo; conditions: Ambrosia artemisiifolia, pre-emergence, 240 h, 0 to 100 scale (0 no effect, 100 complete control), read-out: Plant response rating, Ragweed; for pest or weed control at 31 g/ha: 31 g ai/ha; for pest or weed control at 125 g/ha: 125 g ai/ha
[15] = test system: barnyardgrass (Echinochloa crus-galli); test: Test B flooded paddy test, barnyardgrass; conditions: Echinochloa crus-galli, read-out: Plant response rating, Barnyardgrass (0 to 100 scale, 0 is no effect, 100 is complete control)
[16] = test system: ryegrass, Italian (Italian ryegrass, Lolium multiflorum); test: Test A postemergence, ryegrass, Italian; assay type: in vivo; conditions: Lolium multiflorum, post-emergence, 240 h, 0 to 100 scale (0 no effect, 100 complete control), read-out: Plant response rating, Ryegrass, Italian; for pest or weed control at 31 g/ha: 31 g ai/ha; for pest or weed control at 125 g/ha: 125 g ai/ha
[17] = test system: kochia (Kochia scoparia); test: Test A postemergence, kochia; assay type: in vivo; conditions: Bassia scoparia, post-emergence, 240 h, 0 to 100 scale (0 no effect, 100 complete control), read-out: Plant response rating, Kochia; for pest or weed control at 31 g/ha: 31 g ai/ha; for pest or weed control at 125 g/ha: 125 g ai/ha
[18] = test system: ducksalad (Heteranthera limosa); test: Test B flooded paddy test, ducksalad; conditions: Heteranthera limosa, read-out: Plant response rating, Ducksalad (0 to 100 scale, 0 is no effect, 100 is complete control)

Structure (SMILES) | pest or weed control at 31 g/ha [1] [%] | pest or weed control at 125 g/ha [1] [%] | pest or weed control at 31 g/ha [2] [%] | pest or weed control at 125 g/ha [2] [%] | pest or weed control at 31 g/ha [3] [%] | pest or weed control at 125 g/ha [3] [%] | pest or weed control at 31 g/ha [4] [%] | pest or weed control at 125 g/ha [4] [%] | pest or weed control at 31 g/ha [5] [%] | pest or weed control at 125 g/ha [5] [%] | pest or weed control at 31 g/ha [6] [%] | pest or weed control at 125 g/ha [6] [%] | Corn plant response rating (crop injury, 0 = no effect, 100 = complete kill) at 31 g/ha [7] [%] | Corn plant response rating (crop injury, 0 = no effect, 100 = complete kill) at 125 g/ha [7] [%] | pest or weed control at 31 g/ha [8] [%] | pest or weed control at 125 g/ha [8] [%] | pest or weed control at 31 g/ha [9] [%] | pest or weed control at 125 g/ha [9] [%] | plant injury at 250 g/ha [10] [%] | plant injury at 31 g/ha [11] [%] | also measured
FC(F)(F)CCC1OCCc2cccc(Oc3ncc(Cl)cn3)c21 (stereo not shown) [Compound 32, 5-Chloro-2-[[3,4-dihydro-1-(3,3,3-trifluoropropyl)-1H-2-benzopyran-8-yl]oxy]pyrimidine] | 0 | 0 | 0 | 60 | 10 | 30 | 10 | 20 | 0 | 0 | 10 | 20 | 10 | 20 | 0 | 0 | 20 | 40 | 0 | 0 | plant injury at 125 g/ha [11]: 10%; pest or weed control at 31 g/ha [12]: 0%; pest or weed control at 125 g/ha [12]: 40%; pest or weed control at 31 g/ha [13]: 0%; pest or weed control at 125 g/ha [13]: 50%; pest or weed control at 31 g/ha [14]: 0%; pest or weed control at 125 g/ha [14]: 0%; pest or weed control at 250 g/ha [15]: 0%; pest or weed control at 31 g/ha [16]: 0%; pest or weed control at 125 g/ha [16]: 0%; pest or weed control at 31 g/ha [17]: 0%; pest or weed control at 125 g/ha [17]: 10%; pest or weed control at 250 g/ha [18]: 95%
O=C1c2cccc(Oc3ncc(Cl)cn3)c2C1CCCC(F)(F)F (stereo not shown) [Compound 22, 2-[(5-Chloro-2-pyrimidinyl)oxy]-8-(4,4,4-trifluorobutyl)bicyclo[4.2.0]octa-1,3,5-trien-7-one] | 0 | 20 | 0 | 30 | 0 | 50 | 20 | 40 | 20 | 80 | 50 | 80 | 20 | 30 | 0 | 20 | 30 | 80 | 0 | 0 | plant injury at 125 g/ha [11]: 0%; pest or weed control at 31 g/ha [12]: 0%; pest or weed control at 125 g/ha [12]: 60%; pest or weed control at 31 g/ha [13]: 10%; pest or weed control at 125 g/ha [13]: 70%; pest or weed control at 31 g/ha [14]: 0%; pest or weed control at 125 g/ha [14]: 0%; pest or weed control at 250 g/ha [15]: 35%; pest or weed control at 31 g/ha [16]: 30%; pest or weed control at 125 g/ha [16]: 20%; pest or weed control at 31 g/ha [17]: 40%; pest or weed control at 125 g/ha [17]: 80%; pest or weed control at 250 g/ha [18]: 80%
FC(F)(F)CCCC1COc2cccc(Oc3ncc(Cl)cn3)c21 (stereo not shown) [Compound 33, 5-Chloro-2-[[2,3-dihydro-3-(4,4,4-trifluorobutyl)-4-benzofuranyl]oxy]pyrimidine] | 0 | 50 | 0 | 10 | 0 | 20 | 10 | 20 | 0 | 0 | 50 | 70 | 0 | 0 | 0 | 10 | 20 | 30 | 0 | 0 | plant injury at 125 g/ha [11]: 0%; pest or weed control at 31 g/ha [12]: 0%; pest or weed control at 125 g/ha [12]: 50%; pest or weed control at 31 g/ha [13]: 10%; pest or weed control at 125 g/ha [13]: 100%; pest or weed control at 250 g/ha [15]: 0%; pest or weed control at 31 g/ha [16]: 0%; pest or weed control at 125 g/ha [16]: 0%; pest or weed control at 31 g/ha [17]: 30%; pest or weed control at 125 g/ha [17]: 40%; pest or weed control at 250 g/ha [18]: 70%

Source: patent US11427549B2, “Pyrimidinyloxy benzo-fused compounds as herbicides” (FMC Corporation, priority 2017, dated 2022)
